“Also recorded” adds a separate entry of the source.

The values below come from patent US20170119806A1, “[…] LACTONE DERIVATIVES AND METHODS OF MAKING AND USING THEREOF” (OHIO STATE INNOVATION FOUNDATION, priority 2014, published 2017).

One data set concerns the target topo IIα (Homo sapiens, UniProt P11388). The data set can be described thus: Topoisomerase II assay (DNA cleavage/relaxation). The note with it: 100 μM test compound. Format: biochemical. From the text:
The formation of linear DNA was detected by separating the SDS-treated reaction products using ethidium bromide gel electrophoresis and quantified by accounting for the relationship between fluorescence and relative band intensity for open circular (OC), linear (LNR), supercoiled (SC), and relaxed (RLX) configurations of DNA.
Topoisomerase II Assay. […] The formation of linear DNA was detected by separating the SDS-treated reaction products using ethidium bromide gel electrophoresis by a modification of a previously described procedure (Hasinoff B B et al. Mol. Pharmacol. 2005, 67, 937-947). In this system, topo II-mediated catalytic conversion of supercoiled pBR322 DNA to the “relaxed” form of plasmic' DNA can also be observed. A 20 μL cleavage assay reaction mixture contained 250 ng topo IIα protein, 160 ng pBR322 plasmid DNA (NEB, Ipswich, Mass.), 1.0 mM ATP in assay buffer (10 mM Tris-HCl (pH 7.5), 50 mM KCl, 50 mM NaCl, 0.1 mM EDTA, 5 mM MgCl2, 2.5% glycerol), and 100 μM of test compounds or DMSO solvent, as indicated. Assay buffer (17 μL) and test compound/DMSO (1 μL) were mixed and allowed to sit at room temperature for 30 min after which 2 μL of topo IIα was added to initiate the reaction. Tubes were incubated at 37° C. for 15 min, and then quenched with 1% (v/v) SDS/10 mM disodium EDTA/200 mM NaCl. The mixture was treated subsequently with 0.77 mg/mL proteinase K (Sigma) at 55° C. for 60 min to digest the protein, and DNA bands were separated by electrophoresis (18 h at 2 V/cm) on an agarose gel (1.3% w/v) containing 0.7 μg/mL ethidium bromide in TAE buffer pH 8.0 (40 mM Tris base, 0.114% (v/v) glacial acetic acid, 2 mM EDTA). The DNA in the gel was imaged by its fluorescence on a Chemi-Doc XRS+ imager (Bio-Rad, Hercules, Calif.). Linear DNA was quantified by accounting for the relationship between fluorescence and relative band intensity for open circular (QC), linear (LNR), supercoiled (SC), and RLX (relaxed) configurations of DNA (Projan S J et al. Plasmid 1983, 9, 182-190), then calculating % of LNR from the total DNA content in each lane.

Data set [1] in a line: Solubility in aqueous solutions. Format: physicochemical.
The subject of data set [2] is HT-29 human colon cancer cells. The data set can be described thus: Cytotoxicity against HT-29 cells.
The next data set deals with human primary NK cells. Put plainly: IFN-γ production by NK cells (intracellular flow cytometry, ELISA). Format: cell-based. The conditions noted are these: 10 μM TPCK, 10 μM PL-C and IL-12, 18 h. The method, then: (A) Chemical structure of PL-C (phyllanthusmin C, 4), (9) Healthy donor PBMCs (left panel) or enriched NK cells (right panel) were treated with DMSO vehicle control or 10 μM PL-C for 18 h in the presence of […] (10 ng/mL) or IL-15 (100 ng/mL). The cells were harvested and analyzed by intracellular flow cytometry to determine the frequency of IFN-γ^+ cells in CD56^+CD3^− NK cells (n=8 for PBMC and n=5 for enriched NK). (C) Highly purified (≧99.5%) human primary NK cells were treated with 10 μM PL-C for 18 h to determine the levels of IFN-γ secretion by ELISA. IFN-γ secretion from treatment with PL-C alone (left panel) or in combination with IL-12 (10 ng/mL, middle panel) or IL-15 (100 ng/mL, right panel) is shown. (D) Cells were treated as described in (C) and harvested at 12 h, IFNG mRNA expression was assessed by real-time RT-PCR, and the relative IFNG mRNA expression of each treatment was normalized to untreated vehicle control in the same donor. Data are shown as mean±SEM (n=6 in each treatment; error bars represent SEM). *p<0.05, **p<0.01, which denote statistical comparison between the two marked treatment groups (B-D). (E) Highly purified (≧99,5%) primary human NK cells were treated with 10 μM. PL-C in combination with various concentrations of IL-12 (10, 1, and 0.1 ng/mL) or IL-15 (100, 10, and 1 ng/mL) for 24 h to determine the levels of IFN-γ secretion. Representative data from one of three donors with the similar data are shown. *p<0.05, **p<0.01, which denote statistical comparison between the two marked treatment groups and are calculated from data of all tested donors. Error bars represent SD. […]
Isolation of PBMCs and NK cells. […] The purity of enriched NK cells was ≧80% assessed by flow cytometric analysis after staining with CD56-allophycocyanin and CD3-FITC Abs (BD Bio-sciences, San Jose, Calif.). […] The purity of magnetic bead-purified NK cells was ≧99.5%, as determined by the aforementioned flow cytometric analysis. […]
In general terms: In flow cytometry, cells or beads pass a laser one at a time.

For a further data set, the system named is NF-κB p65. Put plainly: Immunoblotting of p65 and p-p65 in NK cells. Format: cell-based, human. The note with it: 10 μM TPCK, 10 μM PL-C and IL-12, 18 h. As for the experimental part:
(A) Purified primary human NK cells were treated with 5 and 10 μM PL-C for 18 h. The cells were harvested and lysed for immunoblotting using p65 and p-p65 Abs. β-Actin immunoblotting was included as the internal control. Data shown are for treatment with PL-C alone (top panel) or in combination with IL-12 (10 ng/mL) (middle panel) or IL-15 (100 ng/mL) (bottom panel) and are the representative plots of four donors with similar results. Numbers under each lane represent quantification of p-p65 or p65 via densitometry, after normalizing to β-actin. (B) NKL cells were treated, and data are presented as described in (A). Data from one of three independent experiments with similar results are shown. (C) Purified primary human NK (left panel) or NKL cells (right panel) were cotreated with 10 μM PL-C and IL-12 (10 ng/mL) in the presence or absence of the NF-κB inhibitor TPCK (10 μM) for 18 h. Supernatants were assayed for IFN-γ secretion by ELISA (top panel), and cells were harvested and lysed for immunoblotting of p-p65 (bottom panel). Representative data from one of three donors with the similar data (left panel) and the summary of three independent experiments with similar results (right panel) are shown. **p<0.01. Error bars represent SD.
Immunoblotting. Immunoblotting was performed as described previously (Yu J et al. Immunity 2006, 24, 575-590; Yu J et al. Blood 2010, 115, 274-281). […]
(A western blot detects proteins with antibodies after separation by electrophoresis.)

topo IIα, sequence (P11388 whole entry): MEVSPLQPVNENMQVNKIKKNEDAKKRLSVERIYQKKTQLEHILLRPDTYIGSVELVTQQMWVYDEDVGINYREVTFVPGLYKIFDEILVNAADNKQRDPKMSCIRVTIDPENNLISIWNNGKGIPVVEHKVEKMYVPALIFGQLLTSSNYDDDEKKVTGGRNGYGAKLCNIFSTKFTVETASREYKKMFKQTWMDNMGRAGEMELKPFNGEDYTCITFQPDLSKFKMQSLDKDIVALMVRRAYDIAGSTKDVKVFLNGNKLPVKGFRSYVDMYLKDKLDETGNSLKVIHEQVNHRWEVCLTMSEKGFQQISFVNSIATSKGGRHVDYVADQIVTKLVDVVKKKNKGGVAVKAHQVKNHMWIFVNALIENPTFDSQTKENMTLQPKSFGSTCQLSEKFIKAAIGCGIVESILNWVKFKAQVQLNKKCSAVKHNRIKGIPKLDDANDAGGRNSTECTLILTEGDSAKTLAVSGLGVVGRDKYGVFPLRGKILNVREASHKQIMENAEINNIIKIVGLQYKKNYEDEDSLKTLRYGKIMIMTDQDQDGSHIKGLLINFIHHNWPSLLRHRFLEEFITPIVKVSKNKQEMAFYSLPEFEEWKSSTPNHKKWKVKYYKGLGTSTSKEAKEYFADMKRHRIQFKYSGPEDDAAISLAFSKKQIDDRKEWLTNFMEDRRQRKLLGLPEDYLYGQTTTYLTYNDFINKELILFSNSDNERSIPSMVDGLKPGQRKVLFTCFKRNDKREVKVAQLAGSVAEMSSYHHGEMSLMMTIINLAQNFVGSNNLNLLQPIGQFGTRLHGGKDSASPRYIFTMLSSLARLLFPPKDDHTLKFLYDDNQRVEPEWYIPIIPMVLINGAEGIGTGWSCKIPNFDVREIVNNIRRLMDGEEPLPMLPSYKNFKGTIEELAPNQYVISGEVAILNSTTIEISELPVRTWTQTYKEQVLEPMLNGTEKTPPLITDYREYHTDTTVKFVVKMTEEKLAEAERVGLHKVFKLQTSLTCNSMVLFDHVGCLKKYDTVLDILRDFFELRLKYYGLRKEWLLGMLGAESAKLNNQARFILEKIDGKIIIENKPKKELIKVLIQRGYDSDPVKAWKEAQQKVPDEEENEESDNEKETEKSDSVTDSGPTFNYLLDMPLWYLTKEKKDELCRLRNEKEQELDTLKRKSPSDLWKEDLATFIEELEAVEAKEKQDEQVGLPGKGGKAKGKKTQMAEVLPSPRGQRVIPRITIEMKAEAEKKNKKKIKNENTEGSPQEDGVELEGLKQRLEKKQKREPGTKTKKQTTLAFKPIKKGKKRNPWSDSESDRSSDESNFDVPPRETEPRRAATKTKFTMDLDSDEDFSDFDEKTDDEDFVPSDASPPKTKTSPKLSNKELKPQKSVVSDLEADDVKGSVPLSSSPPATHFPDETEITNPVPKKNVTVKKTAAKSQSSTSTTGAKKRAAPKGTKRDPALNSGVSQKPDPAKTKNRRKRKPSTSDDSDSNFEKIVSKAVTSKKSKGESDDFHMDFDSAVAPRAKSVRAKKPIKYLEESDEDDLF

Usually IC50 stands for the point on the concentration scale where inhibition reaches its midpoint. With `COc1cc2c(O[C@@H]3OC[C@H](OC(C)=O)[C@H](OC(C)=O)[C@H]3OC(C)=O)c3c(c(-c4ccc5c(c4)OCO5)c2cc1OC)C(=O)OC3` [Compound 7, 7-O-((2,3,4-tri-O-acetyl)-α-L-arabinopyranosyl) diphyllin], at topo IIα, the “topo IIα inhibition (in words)” value was “not topo Ha inhibitors; also recorded: not topo IIα inhibitors”. For the same compound, the “solubility in aqueous solutions” value in data set [1] is “insoluble in aqueous solutions”. In addition, the EC50 in data set [2] (read-out: ED50, toxicity towards HT-29 cells, natural samples) came to 110 nM. Also, in data set [2] (read-out: IC50, cytotoxicity toward HT-29 cells), the IC50 was 110 nM.
Take “N-tosyl-L-phenylalanine chloromethyl ketone [TPCK, reference compound]”: the “effect on PL-C-induced IFN-γ secretion” value with human primary NK cells is listed as “inhibition of PL-C-induced IFN-γ secretion”. Further, in the data set on NF-κB p65, the “effect on PL-C-induced p65 phosphorylation” value is listed as “inhibited PL-C-induced p65 phosphorylation”.
